Test results taken from ChEMBL document CHEMBL5634145, “Discovery of novel amidobenzimidazole derivatives as orally available small molecule modulators of stimulator of interferon genes for cancer immunotherapy” (Eur J Med Chem, 2023).

Assays:
[1] = Cytotoxicity against wild type human THP1-Dual cells assessed as cell viability incubated for 24 hrs by CellTiter 96 aqueous one solution assay relative to control; type: toxicity, cell-based; design: concentration or dose not given beside the values; conditions: read-out: Activity
[2] = Cytotoxicity against human THP1-Dual KO-STING cells assessed as cell viability incubated for 24 hrs by CellTiter 96 aqueous one solution assay relative to control; type: toxicity, cell-based; design: concentration or dose not given beside the values; conditions: read-out: Activity
[3] = target: Stimulator of interferon genes protein (Homo sapiens, UniProt Q86WV6); test: Agonist activity at STING in wild type human THP1-Dual cells assessed as increase in IRF-mediated immune response incubated for 24 hrs by QUANTI-Luc assay; type: cell-based
Sequence of Stimulator of interferon genes protein (Q86WV6 whole entry): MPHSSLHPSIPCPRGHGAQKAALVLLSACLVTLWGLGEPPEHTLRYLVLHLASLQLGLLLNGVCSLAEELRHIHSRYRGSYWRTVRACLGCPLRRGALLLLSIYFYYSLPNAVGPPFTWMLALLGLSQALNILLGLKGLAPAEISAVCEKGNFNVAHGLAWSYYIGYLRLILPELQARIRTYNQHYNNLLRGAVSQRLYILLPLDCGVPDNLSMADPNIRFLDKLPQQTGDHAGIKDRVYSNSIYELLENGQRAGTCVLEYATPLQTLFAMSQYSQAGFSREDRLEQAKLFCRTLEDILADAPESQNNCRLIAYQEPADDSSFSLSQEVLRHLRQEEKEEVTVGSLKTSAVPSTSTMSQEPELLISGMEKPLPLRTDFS

For `CCn1nc(C)cc1C(=O)NCCCCn1c(NC(=O)c2cccnc2C)nc2cc(C(N)=O)ccc21`, the viability at 24 h [1] was 98.5% and the viability at 24 h [2] was 105%.
Work on `CC(C)(C)OC(=O)NCCCCn1c(NC(=O)c2ccccc2)nc2cc(C(N)=O)ccc21` yielded a viability at 24 h [1] of 82.1% and a viability at 24 h [2] of 101%.
With `CC(C)(C)OC(=O)NCCCCn1c(NC(=O)c2cccnc2)nc2cc(C(N)=O)ccc21` the EC50 [3] was 42.1 µM, the viability at 24 h [1] was 97.4% and the viability at 24 h [2] was 93.3%.
With `Cc1ncccc1C(=O)Nc1nc2cc(C(N)=O)ccc2n1C` the viability at 24 h [1] was 82.8% and the viability at 24 h [2] was 105%.
`Cc1ncccc1C(=O)Nc1nc2cc(C(N)=O)ccc2n1CCCNC(=O)OC(C)(C)C` showed a viability at 24 h [1] of 102% and a viability at 24 h [2] of 93.6%.
With `CC(C)(C)OC(=O)NCCCCn1c(NC(=O)c2cccnc2C(C)(C)C)nc2cc(C(N)=O)ccc21` the viability at 24 h [1] was 91.6% and the viability at 24 h [2] was 106%.
Molecule `Cc1ccc(C(=O)Nc2nc3cc(C(N)=O)ccc3n2CCCCNC(=O)OC(C)(C)C)c(C)n1` has a viability at 24 h [1] of 112% and a viability at 24 h [2] of 93.2%.
In the case of `CC(C)(C)OC(=O)NCCCCn1c(NC(=O)c2ccc(F)nc2)nc2cc(C(N)=O)ccc21`, the viability at 24 h [1] is reported as 102% and the viability at 24 h [2] is reported as 107%.
With `CC(C)(C)OC(=O)NCCCCn1c(NC(=O)c2cccnc2Cl)nc2cc(C(N)=O)ccc21` the viability at 24 h [1] was 105% and the viability at 24 h [2] was 100%.
In the case of `Cc1ncccc1C(=O)Nc1nc2cc(C(N)=O)ccc2n1CCCN`, the viability at 24 h [1] is reported as 105% and the viability at 24 h [2] is reported as 100%.
`Cc1ncccc1C(=O)Nc1nc2cc(C(N)=O)ccc2n1CCCCN` gave a viability at 24 h [1] of 105% and a viability at 24 h [2] of 98.5%.
Work on `CC(=O)NCCCCn1c(NC(=O)c2cccnc2C)nc2cc(C(N)=O)ccc21` yielded a viability at 24 h [1] of 99.7% and a viability at 24 h [2] of 97.4%.
Work on `COc1cc(C(N)=O)cc2nc(NC(=O)c3ccc(C(F)(F)F)nc3C)n(C/C=C/CNC(=O)OC(C)(C)C)c12` yielded a viability at 24 h [1] of 87.5% and a viability at 24 h [2] of 107%.
With `CC(C)(C)OC(=O)NCCCCn1c(NC(=O)c2cccnc2C(F)(F)F)nc2cc(C(N)=O)ccc21` the viability at 24 h [1] was 108% and the viability at 24 h [2] was 102%.
`CCn1nc(C)cc1C(=O)Nc1nc2cc(C(N)=O)ccc2n1CCCCNC(=O)OC(C)(C)C` gave an EC50 [3] of 19.6 µM, a viability at 24 h [1] of 69% and a viability at 24 h [2] of 105%.
Work on `Cc1ncccc1C(=O)Nc1nc2cc(C(N)=O)ccc2n1CCCCCN` yielded a viability at 24 h [1] of 110% and a viability at 24 h [2] of 99.3%.
